PubChem BioAssay AID1963433 (Molecular Pharmacology Branch, DTP, NCI, 2024)

Test system: 772245-204-R-J1-PDC complex spheroid growth
Assay: Anticancer human tumor 772245-204-R-J1-PDC patient-derived rhabdomyosarcoma cell line growth inhibition [Asc]
Conditions: for IC50: curve of first compound; for viability, T/C: stronger effect = lower value
Description: Multicellular complex tumor spheroid response to apoptosis pathway targeting inhibitors Alrizomadlin, Pelcitoclax, and Dasminapant in combination with a variety of drugs and investigational agents in selected tumor cell lines
The MDM2 inhibitor alrizomadlin, the Bcl-2/Bcl-xL inhibitor pelcitoclax, and the IAPs inhibitor dasminapant were evaluated both individually and in combination with standard of care and investigational anticancer small molecules within a complex spheroid model of solid tumors. . Complex spheroids include a stromal component modeled by human endothelial cells (HUVEC) and fibroblasts modeled by human mesenchymal stem cells (MSCs). The concentration ranges selected for each drug and investigational agent were based upon clinically achievable concentrations if the clinical Cmax of the agent was known.
Compounds. The drugs and investigational agents: alrizomadlin (APG-115; NSC831270), pelcitoclax (APG-1252; NSC835773), dasminapant (APG-1387;NSC834197), TAK-243 (NSC785004), copanlisib (NSC809693), olaparib (NSC753686), talazoparib (NSC767125), cobimetinib (NSC 768068), eltanexor (KPT-8602, NSC 794443), abemaciclib (NSC 768073), sotorasib (NSC818433), adagrasib (NSC 831453), MRTX-1133 (NSC 836407), Iadademestat (ORY1001, NSC 806812), and RMC-4630 (NSC839698), were obtained from the NCI Developmental Therapeutics Program Chemical Repository. The FDA-approved anticancer drug set is available from the Developmental Therapeutics Program at https://dtp.cancer.gov/organization/dscb/obtaining/available plates.htm. […] The stock solutions were prepared in dimethyl sulfoxide (DMSO, Sigma-Aldrich, St. Louis, MO, cat. D2650) at 800-fold the tested concentration and stored at -70 degrees C prior to their use. All drugs and investigational agents were tested over a range starting from a high concentration at or near the clinical Cmax and decreasing in half-log increments. If the clinical Cmax for an agent had not been determined, the highest concentration tested was 10 microM.
The patient-derived cancer (PDC) cell lines include five colon adenocarcinomas: 186277-243-T-J2-PDC, 616215-338-R-J1-PDC, 439559-082-T-J2-PDC, 463943-066-T-J2-PDC, and 519858-162-T-J1-PDC; three pancreatic carcinomas: 323965-272-R-J2-PDC, 521955-158-R6-J3-PDC, and 521955-158-R2-J5-PDC; two uterine sarcomas: 327498-152-R-J2-PDC and 993429-296-R-J1-PDC; two rhabdomyosarcomas: 755483-174-R-J1-PDC and 772245-204-R-J1-PDC; two soft tissue sarcomas: 126254-015-R-J1-PDC and 494315-158-R-J1-PDC; two malignant fibrous histiocytomas: 317291-083-R-J1-PDC and 596521-263-R-J1-PDC; two breast carcinomas: 171881-019-R-J1-PDC and 885512-296-R-J2-PDC; and one ovarian carcinoma: 6556581-035-R-J-PDC were obtained from the NCI PDMR, (https://pdmr.cancer.gov). The established cell lines HSSY-2 synovial sarcoma (RRID:CVCL 8719), SYO-1 synovial sarcoma (RRID:CVCL_7146), MPNST malignant peripheral neural sheath tumor were obtained from the Sloan Kettering Institute. The following established cell lines were purchased from the American Type Culture Collection (ATCC, Manassas, VA), Sor the received from the NCI repository:, PANC-1 pancreatic carcinoma (CRL-1469, RRID:CVCL_0480), OVCAR-5 ovarian carcinoma (RRID:CVCL_1628), OVCAR-8 ovarian carcinoma (RRID:CVCL_1629), , MCF-7 breast carcinoma (CRL-12584, RRID:CVCL_0031), MDA-MB-231 breast carcinoma (CRL-12532, RRID:CVCL_0062), NCI-H1876 small cell lung carcinoma (CRL-5902, RRID:CVCL_1503), NCI-H510A small cell lung carcinoma (HTB-184, RRID:CVCL_1565), NCI-H1417 (CRL-5869, RRID:CVCL_1469), and NCI-H196 small cell lung carcinoma (CRL-5823, RRID:CVCL_1509). Dr. Peter Houghton (Greehey Children's Cancer Research Institute, University of Texas Health Science Center, San Antonio, TX) provided Rh-18 rhabdomyosarcoma (RRID:CVCL_1659). Pooled donor human umbilical vein endothelial cells (HUVEC, Lonza, cat. CC-2519) and human mesenchymal stem cells (hMSC, Lonza, cat. PT-2501) were purchased from Lonza (Walkersville, MD).
Cell Culture. […]
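Note: compound exposure lasted seven days.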
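Throughout, for viability, T/C: 100% = DMSO vehicle control viability.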

SMILES: NC(=O)C(=Cn1cnc(-c2cc(C(F)(F)F)cc(C(F)(F)F)c2)n1)c1cncnc1 + CNC(C)C(=O)NC1CN(S(=O)(=O)c2cccc(S(=O)(=O)N3CCC4CCC(C(=O)NC(c5ccccc5)c5ccccc5)N4C(=O)C(NC(=O)C(C)NC)C3)c2)CCC2CCC(C(=O)NC(c3ccccc3)c3ccccc3)N2C1=O
- IC50 (second compound 0.01 µM): > 0.3 µM
- IC50 (second compound 0.0316 µM): > 0.3 µM
- IC50 (second compound 0.1 µM): > 0.3 µM
- IC50 (second compound 0.316 µM): > 0.3 µM
- IC50 (second compound 1 µM): > 0.3 µM
- viability, T/C (second compound 0.01 µM, first compound 0.000949 µM): 96.8%
- viability, T/C (second compound 0.01 µM, first compound 0.003 µM): 107%
- viability, T/C (second compound 0.01 µM, first compound 0.00949 µM): 100%
- viability, T/C (second compound 0.01 µM, first compound 0.03 µM): 84.2%
- viability, T/C (second compound 0.01 µM, first compound 0.0949 µM): 62.2%
- viability, T/C (second compound 0.01 µM, first compound 0.3 µM): 68.5%
- viability, T/C (second compound 0.0316 µM, first compound 0.000949 µM): 92.9%
- viability, T/C (second compound 0.0316 µM, first compound 0.003 µM): 114%
- viability, T/C (second compound 0.0316 µM, first compound 0.00949 µM): 100%
- viability, T/C (second compound 0.0316 µM, first compound 0.03 µM): 77.2%
- viability, T/C (second compound 0.0316 µM, first compound 0.0949 µM): 88.7%
- viability, T/C (second compound 0.0316 µM, first compound 0.3 µM): 67.3%
- viability, T/C (second compound 0.1 µM, first compound 0.000949 µM): 97.8%
- viability, T/C (second compound 0.1 µM, first compound 0.003 µM): 98.9%
- viability, T/C (second compound 0.1 µM, first compound 0.00949 µM): 91.9%
- viability, T/C (second compound 0.1 µM, first compound 0.03 µM): 80.9%
- viability, T/C (second compound 0.1 µM, first compound 0.0949 µM): 57.3%
- viability, T/C (second compound 0.1 µM, first compound 0.3 µM): 71.7%
- viability, T/C (second compound 0.316 µM, first compound 0.000949 µM): 95.3%
- viability, T/C (second compound 0.316 µM, first compound 0.003 µM): 97.2%
- viability, T/C (second compound 0.316 µM, first compound 0.00949 µM): 86.2%
- viability, T/C (second compound 0.316 µM, first compound 0.03 µM): 77.8%
- viability, T/C (second compound 0.316 µM, first compound 0.0949 µM): 62%
- viability, T/C (second compound 0.316 µM, first compound 0.3 µM): 69.3%
- viability, T/C (second compound 1 µM, first compound 0.000949 µM): 99.2%
- viability, T/C (second compound 1 µM, first compound 0.003 µM): 97.2%
- viability, T/C (second compound 1 µM, first compound 0.00949 µM): 94.4%
- viability, T/C (second compound 1 µM, first compound 0.03 µM): 102%
- viability, T/C (second compound 1 µM, first compound 0.0949 µM): 78.3%
- viability, T/C (second compound 1 µM, first compound 0.3 µM): 56.7%

SMILES: CCN1CCN(Cc2ccc(Nc3ncc(F)c(-c4cc(F)c5nc(C)n(C(C)C)c5c4)n3)nc2)CC1 + CNC(C)C(=O)NC1CN(S(=O)(=O)c2cccc(S(=O)(=O)N3CCC4CCC(C(=O)NC(c5ccccc5)c5ccccc5)N4C(=O)C(NC(=O)C(C)NC)C3)c2)CCC2CCC(C(=O)NC(c3ccccc3)c3ccccc3)N2C1=O
- IC50 (second compound 0.01 µM): > 1 µM
- IC50 (second compound 0.0316 µM): > 1 µM
- IC50 (second compound 0.1 µM): > 1 µM
- IC50 (second compound 0.316 µM): > 1 µM
- IC50 (second compound 1 µM): > 1 µM
- viability, T/C (second compound 0.01 µM, first compound 0.00316 µM): 104%
- viability, T/C (second compound 0.01 µM, first compound 0.01 µM): 94.3%
- viability, T/C (second compound 0.01 µM, first compound 0.0316 µM): 90.8%
- viability, T/C (second compound 0.01 µM, first compound 0.1 µM): 99.8%
- viability, T/C (second compound 0.01 µM, first compound 0.316 µM): 106%
- viability, T/C (second compound 0.01 µM, first compound 1 µM): 108%
- viability, T/C (second compound 0.0316 µM, first compound 0.00316 µM): 85.3%
- viability, T/C (second compound 0.0316 µM, first compound 0.01 µM): 95.3%
- viability, T/C (second compound 0.0316 µM, first compound 0.0316 µM): 96%
- viability, T/C (second compound 0.0316 µM, first compound 0.1 µM): 94%
- viability, T/C (second compound 0.0316 µM, first compound 0.316 µM): 102%
- viability, T/C (second compound 0.0316 µM, first compound 1 µM): 103%
- viability, T/C (second compound 0.1 µM, first compound 0.00316 µM): 82.3%
- viability, T/C (second compound 0.1 µM, first compound 0.01 µM): 89.9%
- viability, T/C (second compound 0.1 µM, first compound 0.0316 µM): 85.8%
- viability, T/C (second compound 0.1 µM, first compound 0.1 µM): 104%
- viability, T/C (second compound 0.1 µM, first compound 0.316 µM): 104%
- viability, T/C (second compound 0.1 µM, first compound 1 µM): 115%
- viability, T/C (second compound 0.316 µM, first compound 0.00316 µM): 103%
- viability, T/C (second compound 0.316 µM, first compound 0.01 µM): 94.1%
- viability, T/C (second compound 0.316 µM, first compound 0.0316 µM): 96.1%
- viability, T/C (second compound 0.316 µM, first compound 0.1 µM): 89.4%
- viability, T/C (second compound 0.316 µM, first compound 0.316 µM): 92.8%
- viability, T/C (second compound 0.316 µM, first compound 1 µM): 104%
- viability, T/C (second compound 1 µM, first compound 0.00316 µM): 87.8%
- viability, T/C (second compound 1 µM, first compound 0.01 µM): 94.3%
- viability, T/C (second compound 1 µM, first compound 0.0316 µM): 102%
- viability, T/C (second compound 1 µM, first compound 0.1 µM): 98.8%
- viability, T/C (second compound 1 µM, first compound 0.316 µM): 105%
- viability, T/C (second compound 1 µM, first compound 1 µM): 104%
